Data published in the NIST ThermoML archive (doi:10.1021/je200868y).
Numbers after ± are expanded uncertainties.

Conditions: Liquid; for mass density: 298.15 K, 101.33 kPa, Vibrating tube method

mass density [kg/m3]	vapor or sublimation pressure (329.69 K) [kPa]	vapor or sublimation pressure (336.07 K) [kPa]	vapor or sublimation pressure (341.23 K) [kPa]	vapor or sublimation pressure (345.6 K) [kPa]	vapor or sublimation pressure (349.39 K) [kPa]	vapor or sublimation pressure (351.44 K) [kPa]	vapor or sublimation pressure (408.31 K) [kPa]	vapor or sublimation pressure (417.74 K) [kPa]	vapor or sublimation pressure (425.39 K) [kPa]	vapor or sublimation pressure (431.86 K) [kPa]	vapor or sublimation pressure (437.53 K) [kPa]	vapor or sublimation pressure (440.57 K) [kPa]	Structure (SMILES)	vapor or sublimation pressure (379.81 K) [kPa]	vapor or sublimation pressure (388.96 K) [kPa]	vapor or sublimation pressure (396.45 K) [kPa]	vapor or sublimation pressure (402.82 K) [kPa]	vapor or sublimation pressure (408.4 K) [kPa]	vapor or sublimation pressure (411.48 K) [kPa]
785.18 ± 0.15	40 ± 1.5	53.33 ± 2	66.66 ± 2.4	79.99 ± 2.8	93.32 ± 3.2	101.3 ± 3.4	–	–	–	–	–	–	CCO [ethanol]	–	–	–	–	–	–
865.59 ± 0.11	–	–	–	–	–	–	40 ± 1.5	53.33 ± 2	66.66 ± 2.4	79.99 ± 2.8	93.32 ± 3.2	101.3 ± 3.4	CCCCCC(=O)OCC [ethyl hexanoate]	–	–	–	–	–	–

Structure (SMILES)	mass density [kg/m3]	vapor or sublimation pressure (329.69 K) [kPa]	vapor or sublimation pressure (336.07 K) [kPa]	vapor or sublimation pressure (341.23 K) [kPa]	vapor or sublimation pressure (345.6 K) [kPa]	vapor or sublimation pressure (349.39 K) [kPa]	vapor or sublimation pressure (351.44 K) [kPa]	vapor or sublimation pressure (408.31 K) [kPa]	vapor or sublimation pressure (417.74 K) [kPa]	vapor or sublimation pressure (425.39 K) [kPa]	vapor or sublimation pressure (431.86 K) [kPa]	vapor or sublimation pressure (437.53 K) [kPa]	vapor or sublimation pressure (440.57 K) [kPa]	vapor or sublimation pressure (379.81 K) [kPa]	vapor or sublimation pressure (388.96 K) [kPa]	vapor or sublimation pressure (396.45 K) [kPa]	vapor or sublimation pressure (402.82 K) [kPa]	vapor or sublimation pressure (408.4 K) [kPa]	vapor or sublimation pressure (411.48 K) [kPa]
Cc1ccc(C)cc1 [1,4-dimethylbenzene]	856.68 ± 0.12	–	–	–	–	–	–	–	–	–	–	–	–	40 ± 1.5	53.33 ± 2	66.66 ± 2.4	79.99 ± 2.8	93.32 ± 3.2	101.3 ± 3.4
